Tests used:
ALOMY [1] = assay: Herbicidal post-emergence action 1a (greenhouse pots, visual rating); assay type: in vivo, Alopecurus myosuroides; settings: rated visually about 3 weeks after treatment, 100% = plants have died, 0% = like control plants
Summary of the method: (§1)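 Visual scoring versus untreated plants (100% = plants dead, 0% = as control) followed roughly 3 weeks in the greenhouse after treatment. Plants grown in sandy loam pots had been sprayed on green parts at the one-leaf stage, 2–3 weeks post-sowing, with aqueous WP/EC preparations containing 0.5% additive, 600 l/ha, at 320 and/or 80 g/ha.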

AVEFA [2] = assay: as above; assay type: in vivo, Avena fatua; settings: rated visually about 3 weeks after treatment, 100% = plants have died, 0% = like control plants
Summary of the method: as §1

DIGSA [3] = assay: as above; assay type: in vivo, Digitaria sanguinalis; settings: rated visually about 3 weeks after treatment, 100% = plants have died, 0% = like control plants
Procedure: (§2) [table] a) Seeds of monocotyledonous and dicotyledonous weeds and crop plants are placed in sandy loam in plastic or organic plant pots, covered with soil and cultivated in a greenhouse under controlled growth conditions. 2 to 3 weeks after sowing, the test plants are treated at the one-leaf stage. The compounds of the invention, formulated in the form of wettable powders (WP) or as emulsion concentrates (EC), are then sprayed onto the green parts of the plants as aqueous suspension or emulsion with addition of 0.5% additive at a water application rate of 600 1/ha (converted). After the test plants have been kept in the greenhouse under optimum growth conditions for about 3 weeks, the activity of the preparations is rated visually in comparison to untreated controls. For example, 100% activity=the plants have died, 0% activity=like control plants. Tables A1 to A15 below show the effects of selected compounds of the general formula (I) according to Tables 1 and 2 on various harmful plants and an application rate corresponding to 320 g/ha and/or 80 g/ha, which were obtained by the experimental procedure mentioned above.

ECHCG [4] = assay: as above; assay type: in vivo, Echinochloa crus-galli; settings: Dosage 320 g/ha; rated visually about 3 weeks after treatment; 100% = plants have died, 0% = like control plants
Procedure: as §2

LOLRI [5] = assay: as above; assay type: in vivo, Lolium rigidum; settings: rated visually about 3 weeks after treatment, 100% = plants have died, 0% = like control plants
Summary of the method: as §1

SETVI [6] = assay: as above; assay type: in vivo, Setaria viridis; settings: rated visually about 3 weeks after treatment, 100% = plants have died, 0% = like control plants
Summary of the method: as §1

ABUTH = assay: as above; assay type: in vivo, Abutilon theophrasti; settings: visual rating about 3 weeks after treatment
Summary of the method: as §1

AMARE [7] = assay: as above; assay type: in vivo, Amaranthus retroflexus; settings: visual rating about 3 weeks after treatment
Summary of the method: as §1

POLCO [8] = assay: as above; assay type: in vivo, Polygonum convolvulus; settings: dosage 320 g/ha, visual rating about 3 weeks after treatment
Summary of the method: as §1

VIOTR [9] = assay: as above; assay type: in vivo, Viola tricolor; settings: visual rating about 3 weeks after treatment
Summary of the method: as §1

VERPE [10] = assay: as above; assay type: in vivo, Veronica persica; settings: visual rating about 3 weeks after treatment
Summary of the method: as §1

ALOMY [11] = assay: Herbicidal pre-emergence action 2a (greenhouse pots, visual scoring); assay type: in vivo, Alopecurus myosuroides; settings: dosage 320 g/ha, visual scoring after about 3 weeks
Summary of the method: (§3)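 Weed and crop seeds placed in pots and covered with soil; aqueous suspension or emulsion of WP/EC formulation applied to the soil surface before emergence (600 l/ha, 0.5% additive, 320 and/or 80 g/ha). Pots kept in the greenhouse about 3 weeks; visual percentage scoring.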

AVEFA [12] = assay: as above; assay type: in vivo, Avena fatua; settings: dosage 320 g/ha, visual scoring after about 3 weeks
Summary of the method: as §3

DIGSA [13] = assay: as above; assay type: in vivo, Digitaria sanguinalis; settings: dosage 320 g/ha, visual scoring after about 3 weeks
From the text: (§4) [table] a) Seeds of monocotyledonous and dicotyledonous weed plants and crop plants are placed in plastic or organic plant pots and covered with soil. The compounds of the invention, formulated in the form of wettable powders (WP) or as emulsion concentrates (EC), are then applied onto the surface of the covering soil as aqueous suspension or emulsion with addition of 0.5% additive at a water application rate of 600 1/ha (converted). After the treatment, the pots are placed in a greenhouse and kept under good growth conditions for the trial plants. After about 3 weeks, the effect of the preparations is scored visually in comparison with untreated controls as percentages. For example, 100% activity=the plants have died, 0% activity=like control plants. Tables B1 to B15 below show the effects of selected compounds of the general formula (I) according to Tables 1 and 2 on various harmful plants and an application rate corresponding to 320 g/ha and/or 80 g/ha, which were obtained by the experimental procedure mentioned above.

ECHCG [14] = assay: as above; assay type: in vivo, Echinochloa crus-galli; settings: dosage 320 g/ha, visual scoring after about 3 weeks
From the text: as §4

LOLRI [15] = assay: as above; assay type: in vivo, Lolium rigidum; settings: dosage 320 g/ha, visual scoring after about 3 weeks vs untreated controls
Summary of the method: as §3

SETVI [16] = assay: as above; assay type: in vivo, Setaria viridis; settings: dosage 320 g/ha, visual scoring after about 3 weeks vs untreated controls
Summary of the method: as §3

AMARE [17] = assay: as above; assay type: in vivo, Amaranthus retroflexus; settings: dosage 320 g/ha, visual scoring after about 3 weeks vs untreated controls
Summary of the method: as §3

POLCO [18] = assay: as above; assay type: in vivo, Polygonum convolvulus; settings: dosage 320 g/ha, visual scoring after about 3 weeks vs untreated controls
Summary of the method: as §3

VIOTR [19] = assay: as above; assay type: in vivo, Viola tricolor; settings: dosage 320 g/ha, visual scoring after about 3 weeks vs untreated controls
Summary of the method: as §3

VERPE [20] = assay: as above; assay type: in vivo, Veronica persica; settings: dosage 320 g/ha, visual scoring after about 3 weeks vs untreated controls
Summary of the method: as §3

harmful plants [21] = assay: Herbicidal post-emergence action 1a, summary across species; assay type: in vivo; settings: Tables A1 to A15 (320 g/ha and/or 80 g/ha)
Procedure: as §2, with “a)” for “[table] a)”, “plants.” for “plants. Tables A1 to A15 below show the effects of selected compounds of the general formula (I) according to Tables 1 and 2 on various harmful plants and an application rate corresponding to 320 g/ha and/or 80 g/ha, which were obtained by the experimental procedure mentioned above.”
Tables A1 to A15 below show the effects of selected compounds of the general formula (I) according to Tables 1 and 2 on various harmful plants and an application rate corresponding to 320 g/ha and/or 80 g/ha, which were obtained by the experimental procedure mentioned above.
For example, compound nos. I-05, I-07, I-08, I-10, I-12, I-16, I-17, I-22, I-36, I-37, I-39 and I-40 in the post-emergence method have very good action (80% to 100% herbicidal activity) against harmful plants such as Alopecurus myosuroides, Amaranthus retroflexus, Avena fatua, Lolium rigidum, Polygonum convolvulus, Setaria viridis, Veronica persica and Viola tricolor at an application rate of 0.32 kg of active substance per hectare.

harmful plants [22] = assay: Herbicidal pre-emergence action 2a, summary across species; assay type: in vivo; settings: Tables B1 to B15 (320 g/ha and/or 80 g/ha)
From the text: as §4, with “a)” for “[table] a)”, “plants.” for “plants. Tables B1 to B15 below show the effects of selected compounds of the general formula (I) according to Tables 1 and 2 on various harmful plants and an application rate corresponding to 320 g/ha and/or 80 g/ha, which were obtained by the experimental procedure mentioned above.”
Tables B1 to B15 below show the effects of selected compounds of the general formula (I) according to Tables 1 and 2 on various harmful plants and an application rate corresponding to 320 g/ha and/or 80 g/ha, which were obtained by the experimental procedure mentioned above.
For example, compound nos. I-07, I-08, I-11, I-12, I-13, I-16, I-17, I-20, I-36, I-37, I-39, I-45, I-46, I-48, I-52 and I-53 in the pre-emergence method have very good action (80% to 100% herbicidal activity) against harmful plants such as Alopecurus myosuroides, Amaranthus retroflexus, Digitaria sanguinalis, Lolium rigidum, Polygonum convolvulus, Setaria viridis, Veronica persica and Viola tricolor at an application rate of 0.32 kg of active substance per hectare.

PHBPU [23] = assay: Herbicidal post-emergence action 1a (greenhouse pots, visual rating); assay type: in vivo, Pharbitis purpurea; settings: visual rating about 3 weeks after treatment
Summary of the method: as §1

MATIN = assay: Herbicidal pre-emergence action 2a (greenhouse pots, visual scoring); assay type: in vivo, Matricaria inodora; settings: dosage 320 g/ha, visual scoring after about 3 weeks vs untreated controls
Summary of the method: as §3

PHBPU [24] = assay: as above; assay type: in vivo, Pharbitis purpurea; settings: dosage 320 g/ha, visual scoring after about 3 weeks vs untreated controls
From the text: as §4

SMILES | Post-emergence action against ALOMY in % (ALOMY [1]; Dosage 320 g/ha) | Post-emergence action against AVEFA in % (AVEFA [2]; Dosage 80 g/ha) | Post-emergence action against AVEFA in % (AVEFA [2]; Dosage 320 g/ha) | Post-emergence action against ECHCG in % (ECHCG [4]) | Post-emergence action against LOLRI in % (LOLRI [5]; Dosage 320 g/ha) | Post-emergence action against SETVI in % (SETVI [6]; Dosage 320 g/ha) | Post-emergence action against ABUTH in % (ABUTH; dosage 80 g/ha) | Post-emergence action against ABUTH in % (ABUTH; dosage 320 g/ha) | Post-emergence action against AMARE in % (AMARE [7]; dosage 80 g/ha) | Post-emergence action against AMARE in % (AMARE [7]; dosage 320 g/ha) | Post-emergence action against VERPE in % (VERPE [10]; dosage 320 g/ha) | Pre-emergence action against ALOMY in % (ALOMY [11]) | Pre-emergence action against AVEFA in % (AVEFA [12]) | Pre-emergence action against ECHCG in % (ECHCG [14]) | Pre-emergence action against LOLRI in % (LOLRI [15]) | Pre-emergence action against SETVI in % (SETVI [16]) | Pre-emergence action against AMARE in % (AMARE [17]) | Pre-emergence action against POLCO in % (POLCO [18]) | Pre-emergence action against VERPE in % (VERPE [20]) | also measured
COC(=O)[C@@H](C)Oc1nn(-c2cnccn2)c(-c2ccc(F)nc2)c1Br [Example I-17] | 100% | 90% | 100% | 90% | 90% | 80% | 80% | 80% | 80% | 80% | 90% | 100% | 100% | 100% | 100% | 100% | 100% | 90% | 100% | Post-emergence action against ALOMY in % (ALOMY [1]; Dosage 80 g/ha): 100%; Post-emergence action against DIGSA in % (DIGSA [3]; Dosage 80 g/ha): 80%; Post-emergence action against DIGSA in % (DIGSA [3]; Dosage 320 g/ha): 90%; Post-emergence action against LOLRI in % (LOLRI [5]; Dosage 80 g/ha): 90%; Post-emergence action against POLCO in % (POLCO [8]): 90%; Post-emergence action against VIOTR in % (VIOTR [9]; dosage 80 g/ha): 90%; Post-emergence action against VIOTR in % (VIOTR [9]; dosage 320 g/ha): 90%; Pre-emergence action against DIGSA in % (DIGSA [13]): 100%; Pre-emergence action against VIOTR in % (VIOTR [19]): 100%; herbicidal efficacy against harmful plants in the case of post-emergence treatment (in words) (harmful plants [21]): good herbicidal efficacy; herbicidal efficacy against harmful plants in the case of pre-emergence treatment (in words) (harmful plants [22]): good herbicidal efficacy
O=C(O)COc1nn(-c2cnccn2)c(-c2cncc(F)c2)c1Br [Example I-93] | 100% | 100% | 100% | 90% | 90% | 90% | 80% | 80% | 90% | 90% | 80% | 90% | 100% | 100% | 100% | 100% | 100% | 100% | 100% | Post-emergence action against SETVI in % (SETVI [6]; Dosage 80 g/ha): 90%; Post-emergence action against PHBPU in % (PHBPU [23]; dosage 80 g/ha): 90%; Post-emergence action against PHBPU in % (PHBPU [23]; dosage 320 g/ha): 90%; Post-emergence action against VERPE in % (VERPE [10]; dosage 80 g/ha): 80%; Pre-emergence action against MATIN in % (MATIN): 100%; Pre-emergence action against PHBPU in % (PHBPU [24]): 100%
